Test results as given in patent US20260209777A1, “TARGETING GLYCOSYLPHOSPHATIDYLINOSITOL (GPI) PATHWAY PROTEINS TO TREAT OVARIAN CANCER” (UNIVERSITY OF MASSACHUSETTS, priority 2023, published 2026).

Key:
Format in all cases: cell-based, human
[1] = tested on: CALR cell surface expression in OVCAR8 cells; assay: Flow cytometry analysis of Calreticulin (CALR) in OVCAR8 cells; details: OVCAR8, 12 hours; docetaxel 100 nM, carboplatin 100 nM, doxorubicin 50 nM; vs DMSO (FIG. 11A)
Description: Flow Cytometry Analysis: For cell surface protein staining, 1×10^5-1×10^6 cells were first incubated with Fc receptor blocking solution, Human TruStain FcXTM (BioLegend, Cat #422301) for 10 minutes at room temperature. Cells were washed once in FACS buffer (1×PBS, 1.0% bovine serum albumin (BSA) (Sigma) and 0.2% sodium azide (Sigma), and then incubated with antibodies (given below) for 30 minutes at 4° C. in the dark. Cells were also stained with 7-AAD (Biolegend, Cat #420404) for dead cell exclusion, and flow cytometry analysis was performed using a Bio-Rad ZE5 Cell Analyzer. Following antibodies used in this study (all antibodies were used at 1:50 dilution unless otherwise noted): APC anti-human CD24 (BioLegend, Cat #311118, clone ML5), PE anti-human CD24 (eBioscience, Cat #12-0247-42, clone SN3), APC anti-human CD47 (BioLegend, Cat #323124, clone CC2C6), APC anti-human § 2-microglobulin (BioLegend, Cat #395711, clone […]), PE anti-human HLA-A2 (MHC-class I) (BioLegend, Cat #343305, clone BB7.2), APC anti-human CD11b (BioLegend, Cat #982604, clone ICRF44), APC anti-mouse F4/80 antibody (BioLegend, Cat #123116, clone BM8), APC-streptavidin (Thermo Fisher Scientific, Cat #SA1005, 1:100 dilution), PE anti-Calreticulin (Invitrogen, Catalog #MA5-15382, 1:200 dilution). For intracellular staining, cells were fixed with 1% paraformaldehyde for 5 min and permeabilized using the True-Nuclear Transcription Factor Buffer Set (BioLegend, Cat #424401) before the addition of the antibody. Small Molecule Inhibitor and Drug Treatments: OVCAR8 or SKOV3 cells were treated for 3 days with bestatin (Ubenimex) (SelleckChem, Cat #S1591) at 5, 10 or 20 μM (as indicated in the figure legends), Tosedostat (Medchem Express, Cat #HY-14807) at 5 μM or 10 μM (as indicated in the figure legends) or ARM-1 (Medchem Express, Cat #HY-W027340) at 1, or 2 μM (as indicated in the figure legends). Inhibitors were replenished every 24 hours. DMSO (Sigma Aldrich, Cat #D8418) was used as a vehicle. […]

[2] = tested on: CD24 cell surface expression in OVCAR8 cells; assay: CD24 flow cytometry analysis in OVCAR8 cells; details: OVCAR8; 3 days; bestatin 10 or 20 μM, tosedostat 5 or 10 μM, ARM1 1 or 2 μM; vs DMSO
Description: Flow Cytometry Analysis: For cell surface protein staining, 1×10^5-1×10^6 cells were first incubated with Fc receptor blocking solution, Human TruStain FcXTM (BioLegend, Cat #422301) for 10 minutes at room temperature. Cells were washed once in FACS buffer (1×PBS, 1.0% bovine serum albumin (BSA) (Sigma) and 0.2% sodium azide (Sigma), and then incubated with antibodies (given below) for 30 minutes at 4° C. in the dark. Cells were also stained with 7-AAD (Biolegend, Cat #420404) for dead cell exclusion, and flow cytometry analysis was performed using a Bio-Rad ZE5 Cell Analyzer. Following antibodies used in this study (all antibodies were used at 1:50 dilution unless otherwise noted): APC anti-human CD24 (BioLegend, Cat #311118, clone ML5), PE anti-human CD24 (eBioscience, Cat #12-0247-42, clone SN3), APC anti-human CD47 (BioLegend, Cat #323124, clone CC2C6), APC anti-human § 2-microglobulin (BioLegend, Cat #395711, clone […]), PE anti-human HLA-A2 (MHC-class I) (BioLegend, Cat #343305, clone BB7.2), APC anti-human CD11b (BioLegend, Cat #982604, clone ICRF44), APC anti-mouse F4/80 antibody (BioLegend, Cat #123116, clone BM8), APC-streptavidin (Thermo Fisher Scientific, Cat #SA1005, 1:100 dilution), PE anti-Calreticulin (Invitrogen, Catalog #MA5-15382, 1:200 dilution). For intracellular staining, cells were fixed with 1% paraformaldehyde for 5 min and permeabilized using the True-Nuclear Transcription Factor Buffer Set (BioLegend, Cat #424401) before the addition of the antibody. Small Molecule Inhibitor and Drug Treatments: OVCAR8 or SKOV3 cells were treated for 3 days with bestatin (Ubenimex) (SelleckChem, Cat #S1591) at 5, 10 or 20 μM (as indicated in the figure legends), Tosedostat (Medchem Express, Cat #HY-14807) at 5 μM or 10 μM (as indicated in the figure legends) or ARM-1 (Medchem Express, Cat #HY-W027340) at 1, or 2 μM (as indicated in the figure legends). Inhibitors were replenished every 24 hours. DMSO (Sigma Aldrich, Cat #D8418) was used as a vehicle. OVCAR8 cells were treated with Docetaxel (SelleckChem, Cat #S1148) at 100 nM or Carboplatin (SelleckChem, Cat #S1215 at 100 nM or Doxorubicin (SelleckChem, Cat #E2516) at 50 nM for 12 hours.

OVCAR8 cells = assay: In vitro phagocytosis assay of OVCAR8 cells by PBMC-derived M2 macrophages; details: OVCAR8; bestatin 20 μM, tosedostat 20 μM, ARM1 2 μM; vs DMSO
Text: Macrophage Generation and Stimulation: Primary human donor-derived macrophages were generated as described previously (Martinez, Curr Protocol Immunol 2012, Chapter 14:14.28.1-14.28.23). In brief, Leukopaks from anonymous donors were obtained from the Rhode Island Blood (Providence, RI) and peripheral blood […] (PBMCs) were isolated by density gradients centrifugation using Ficoll Paque Plus (Sigma-Aldrich, Cat #17-1440-02) followed by RBC lysis using RBC lysis buffer (eBioscience, Cat #00-4333-57). For monocyte isolation, PBMCs were incubated in Monocyte Attachment Medium (Sigma-Aldrich, Cat #C-28051) for 1 hour at 37° C. and 5% CO2 and then washed three times in Iscove's Modified Dulbecco's Medium (IMDM) (Gibco, Cat #12440053) to remove non-adherent cells. The remaining monocytes were detached and seeded in 96-well plates and cultured at 37° C. and 5% CO2 in IMDM supplemented with 10% FBS (Atlanta Biologicals, Cat #S11550) and 20 ng/ml recombinant human M-CSF (Peprotech, Cat #AF-300-25). After 4 days monocytes were then treated with 20 ng/ml recombinant human IL-4 (Peprotech, Cat #200-04) and 10 ng/mL recombinant human IL-10 (PeproTech, Cat #200-10) for another 3-4 days to obtain M2 polarized macrophages. Macrophage differentiation was confirmed morphologically using microscopy. M2-macrophage polarization was confirmed by immunophenotyping of the M2 marker CD206 using PE-conjugated anti-human anti-CD206 antibody (BioLegend, Cat #321106, clone 15-2, 1:100 dilution). In vitro Phagocytosis Assays: To facilitate the quantification of phagocytic events, we adapted a microscopy-based fluorescence phagocytosis […] al., J Immunol Methods 2009, 342(1-2):71-7; Lindner et al., Biotechniques 2020, 68(5):245-250) for use with a Celigo imaging cytometer. […] Cells were incubated with pHrodo Red, SE (Invitrogen, Cat #P36600) on ice for 30 min and then co-cultured with PBMC-derived M2 macrophages (prepared as described above) at a ratio of 1:2 (OVCAR8/B cells: macrophages) for 2 hours in a humidified 5% CO2 incubator at 37° C. Phagocytic events were quantified by counting the number of red fluorescent (pHrodo+) cells per well using a Celigo Imaging Cytometer (Nexcelom). EmGFP was used for the visualization of cancer cells in imaging Phagocytic events were also quantified using a previously-described flow cytometry-based assay (Barkal et al., Nature 2019, 572(7769):392-396; […] et al., Biomedicines 2022, 10(5):1175). In brief, M2 macrophages co-cultured with OVCAR8/EmGFP-luc cells were detached using TrypLE Express (GibcoTM, cat #12604013), stained with APC anti-human CD11b clone ICRF44 (BioLegend, Cat #982604) and analyzed by flow cytometry (BioRad ZE5). Double-positive EmGFP+CD11b+ cells were considered phagocytic events.

Structure (SMILES) | CALR cell surface expression [1] | CD24 cell surface expression (MFI) [2] | macrophage-mediated phagocytosis (OVCAR8 cells)
COc1cccc2c1C(=O)c1c(O)c3c(c(O)c1C2=O)C[C@@](O)(C(=O)CO)C[C@@H]3O[C@H]1C[C@H](N)[C@H](O)[C@H](C)O1 [doxorubicin] | did not | – | –
CC(=O)O[C@@]12CO[C@@H]1C[C@H](O)[C@@]1(C)C(=O)[C@H](O)C3=C(C)[C@@H](OC(=O)[C@H](O)[C@@H](NC(=O)OC(C)(C)C)c4ccccc4)C[C@@](O)([C@@H](OC(=O)c4ccccc4)[C@H]21)C3(C)C [docetaxel] | induced robust | – | –
Nc1nc(-c2ccc(Cc3ccccc3)cc2)cs1 [ARM1] | – | decreased | increased
N.N.O=C([O-])C1(C(=O)[O-])CCC1.[Pt+2] [carboplatin] | did not | – | –
